Data taken from PMC8119466, “A screen of FDA-approved drugs identifies inhibitors of protein tyrosine phosphatase 4A3 (PTP4A3 or PRL-3)” (Scientific Reports, 2021).
Where a name gives a salt, the structure may show the parent alone. Read-outs that look alike come from different tables or passages of the source.

Columns and labels:
Assay type in all cases: biochemical
[1] = target: T1, recombinant PRL-1 (Homo sapiens, UniProt Q93096); assay: In vitro phosphatase assay (DiFMUP hydrolysis), PRL-1; also: test concentration or dose not given here
T1 construct: 6xHis (N, cleaved yes); made in house; host or cells: E. coli One Shot BL21 Star
T1 sequence (Q93096 1-173): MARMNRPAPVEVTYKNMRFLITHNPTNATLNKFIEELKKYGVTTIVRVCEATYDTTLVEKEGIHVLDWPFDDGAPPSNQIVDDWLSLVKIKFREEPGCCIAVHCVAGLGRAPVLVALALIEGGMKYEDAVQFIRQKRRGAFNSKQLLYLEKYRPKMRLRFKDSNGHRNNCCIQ

[2] = target: T2, recombinant PRL-3 (Homo sapiens, UniProt O75365); assay: In vitro phosphatase assay (DiFMUP hydrolysis), PRL-3; also: test concentration or dose not given here
T2 construct: 6xHis (N, cleaved yes); made in house; host or cells: E. coli One Shot BL21 Star
T2 sequence (O75365 whole entry): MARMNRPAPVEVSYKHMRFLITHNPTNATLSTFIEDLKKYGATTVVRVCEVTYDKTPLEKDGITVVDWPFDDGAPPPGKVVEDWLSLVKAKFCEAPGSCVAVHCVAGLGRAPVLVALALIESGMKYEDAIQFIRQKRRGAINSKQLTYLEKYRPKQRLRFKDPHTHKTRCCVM

[3] = target: T3, recombinant PRL-2 (Homo sapiens, UniProt Q12974); assay: In vitro phosphatase assay (DiFMUP hydrolysis), PRL-2; conditions: FDA-approved drug screen;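 also: PRL-2 activity read as DiFMUP hydrolysis after 20 min at room temperature with drug, enzyme first pre-reduced at 4 °C for 20 min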
T3 construct: 6xHis (N, cleaved yes); made in house; host or cells: E. coli One Shot BL21 Star
T3 sequence (Q12974 1-167): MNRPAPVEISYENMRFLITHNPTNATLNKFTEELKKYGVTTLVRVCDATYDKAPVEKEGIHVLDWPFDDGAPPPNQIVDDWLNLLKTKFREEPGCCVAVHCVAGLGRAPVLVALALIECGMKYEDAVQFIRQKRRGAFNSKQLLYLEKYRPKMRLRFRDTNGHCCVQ

[4] = FDA-approved drug screen, compared to DMSO
[5] = FDA-approved drug screen, activity compared to DMSO

Row | Compound | % Phosphatase Activity (compared to DMSO) PRL-3 [2, 4] | % Phosphatase Activity (compared to DMSO) PRL-2 ([3]; compared to DMSO) | other results
1 | Polymyxin B sulphate | 98% |  | % Phosphatase Activity (compared to DMSO) PRL-1 [1, 4]: 98%
2 | Colistin Sulfate | 120% |  | % Phosphatase Activity (compared to DMSO) PRL-1 [1, 4]: 91%
3 | CN1[C@@H]2C[C@@H](OC(=O)[C@H](CO)c3ccccc3)C[C@H]1[C@@H]1O[C@@H]12 [Scopolamine HBr] | 77% |  | % Phosphatase Activity (compared to DMSO) PRL-1 [1, 4]: 91%
4 | COc1cc(Nc2c(C#N)cnc3cc(OCCCN4CCN(C)CC4)c(OC)cc23)c(Cl)cc1Cl [Bosutinib (SKI-606)] | 82% |  | % Phosphatase Activity (compared to DMSO) PRL-1 [1, 4]: 94%
5 | O=C1NC(=O)C(c2ccccc2)(c2ccccc2)N1 [Phenytoin] | 84% |  | % Phosphatase Activity (compared to DMSO) PRL-1 [1, 4]: 104%
6 | Nc1ccc(S(=O)(=O)Nc2ncccn2)cc1 [Sulfadiazine] |  |  | % Phosphatase Activity (compared to DMSO) PRL-1 [1]: 105%; % Phosphatase Activity (compared to DMSO) PRL-3 [2]: 103%
7 | COC1=C(OC)C(=O)C(CCCCCCCCCCO)=C(C)C1=O [Idebenone] | 101% | 150% | 
8 | C=C1CC[C@@]2(O)[C@H]3Cc4ccc(O)c5c4[C@@]2(CCN3CC2CC2)[C@H]1O5 [Nalmefene HCl] | 95% | 102% | 
9 | O=C(O)CCCN1CCC(O[C@@H](c2ccc(Cl)cc2)c2ccccn2)CC1.O=S(=O)(O)c1ccccc1 [Bepotastine Besilate] | 98% | 113% | 
10 | CCN(CC)CC(=O)Nc1c(C)cccc1C [Lidocaine] | 63% | 91% | 
11 | Maraviroc | 93% |  | % Phosphatase Activity (compared to DMSO) PRL-1 [1, 4]: 82%
12 | CC(=O)O[C@H]1C[C@@H]2CC[C@@H]3[C@H](CC[C@@]4(C)[C@H]3C[C@H]([N+]3(C)CCCCC3)[C@@H]4OC(C)=O)[C@@]2(C)C[C@@H]1[N+]1(C)CCCCC1.[Br-].[Br-] [Pancuronium dibromide] | 85% | 109% | 
13 | Cc1cc(C2CCCCC2)n(O)c(=O)c1 [Ciclopirox] | 76% | 111% | 
14 | CCc1nc(N)nc(N)c1-c1ccc(Cl)cc1 [Pyrimethamine] | 89% | 109% | 
15 | Nc1ccc(S(N)(=O)=O)cc1 [Sulfanilamide] |  |  | % Phosphatase Activity (compared to DMSO) PRL-2 ([3]; activity compared to DMSO): 92%; % Phosphatase Activity (compared to DMSO) PRL-3 [2, 5]: 77%
16 | CN(C)CCCN1c2ccccc2Sc2ccc(Cl)cc21 [Chlorpromazine HCl] | 81% | 109% | 
17 | O=S(=O)([O-])CCCS(=O)(=O)[O-].[Na+].[Na+] [Eprodisate (disodium)] | 112% | 126% | 
18 | CN1CCC(=C2c3ccccc3C=Cc3ccccc32)CC1 [Cyproheptadine HCl] | 93% | 112% | 
19 | C[C@@H](NCCCc1cccc(C(F)(F)F)c1)c1cccc2ccccc12 [Cinacalcet HCl] | 81% | 114% | 
20 | CN(CCOc1ccc(NS(C)(=O)=O)cc1)CCc1ccc(NS(C)(=O)=O)cc1 [Dofetilide] | 82% | 88% | 
21 | OC[C@@H](O)[C@H](O)[C@@H](O)CO [Xylitol] |  |  | % Phosphatase Activity (compared to DMSO) PRL-2 ([3]; activity compared to DMSO): 99%; % Phosphatase Activity (compared to DMSO) PRL-3 [2, 5]: 96%
22 | Cl.Cl.OCCOCCN1CCN(C(c2ccccc2)c2ccc(Cl)cc2)CC1 (stereo not shown) [Hydroxyzine 2HCl] | 85% | 103% | 
23 | COc1cc2nccc(Oc3ccc(NC(=O)C4(C(=O)Nc5ccc(F)cc5)CC4)cc3)c2cc1OC [Cabozantinib (XL184, BMS-907351)] | 75% | 96% | 
